Values quoted from earlier work, collected in publication PMC9851200, “Multiparameter phenotypic screening for endogenous TFEB and TFE3 translocation identifies novel chemical series modulating lysosome function” (Autophagy, 2022).

What was measured:
Set-up in all cases: method as in original PKIS2 published data
[1] = molecular target: kinases (KINOMEscan panel) (Homo sapiens, UniProt P32298); details: kinase GRK4; Published KINOMEscan; ref original PKIS2 published data; cited from earlier work
Chain of kinases (KINOMEscan panel) (Homo sapiens, UniProt P32298) (P32298 whole entry): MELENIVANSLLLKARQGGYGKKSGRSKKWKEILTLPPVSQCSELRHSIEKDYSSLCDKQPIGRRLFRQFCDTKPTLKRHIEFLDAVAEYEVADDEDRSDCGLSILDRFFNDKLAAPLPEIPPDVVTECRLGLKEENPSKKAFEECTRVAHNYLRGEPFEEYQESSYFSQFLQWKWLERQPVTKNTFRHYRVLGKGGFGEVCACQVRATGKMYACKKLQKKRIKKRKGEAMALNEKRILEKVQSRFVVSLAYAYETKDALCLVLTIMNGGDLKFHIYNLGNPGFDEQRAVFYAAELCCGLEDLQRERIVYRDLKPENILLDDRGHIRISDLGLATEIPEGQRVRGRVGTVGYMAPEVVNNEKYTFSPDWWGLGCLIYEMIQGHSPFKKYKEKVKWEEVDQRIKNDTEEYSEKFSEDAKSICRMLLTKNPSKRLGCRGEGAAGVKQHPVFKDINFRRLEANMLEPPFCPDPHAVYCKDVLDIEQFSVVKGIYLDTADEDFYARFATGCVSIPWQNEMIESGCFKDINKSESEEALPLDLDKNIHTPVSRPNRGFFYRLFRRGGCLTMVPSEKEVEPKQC

[2] = molecular target: kinases (KINOMEscan panel) (Homo sapiens, UniProt Q9NYY3); details: PLK2; Published KINOMEscan; ref original PKIS2 published data; cited from earlier work
Chain of kinases (KINOMEscan panel) (Homo sapiens, UniProt Q9NYY3) (Q9NYY3 whole entry): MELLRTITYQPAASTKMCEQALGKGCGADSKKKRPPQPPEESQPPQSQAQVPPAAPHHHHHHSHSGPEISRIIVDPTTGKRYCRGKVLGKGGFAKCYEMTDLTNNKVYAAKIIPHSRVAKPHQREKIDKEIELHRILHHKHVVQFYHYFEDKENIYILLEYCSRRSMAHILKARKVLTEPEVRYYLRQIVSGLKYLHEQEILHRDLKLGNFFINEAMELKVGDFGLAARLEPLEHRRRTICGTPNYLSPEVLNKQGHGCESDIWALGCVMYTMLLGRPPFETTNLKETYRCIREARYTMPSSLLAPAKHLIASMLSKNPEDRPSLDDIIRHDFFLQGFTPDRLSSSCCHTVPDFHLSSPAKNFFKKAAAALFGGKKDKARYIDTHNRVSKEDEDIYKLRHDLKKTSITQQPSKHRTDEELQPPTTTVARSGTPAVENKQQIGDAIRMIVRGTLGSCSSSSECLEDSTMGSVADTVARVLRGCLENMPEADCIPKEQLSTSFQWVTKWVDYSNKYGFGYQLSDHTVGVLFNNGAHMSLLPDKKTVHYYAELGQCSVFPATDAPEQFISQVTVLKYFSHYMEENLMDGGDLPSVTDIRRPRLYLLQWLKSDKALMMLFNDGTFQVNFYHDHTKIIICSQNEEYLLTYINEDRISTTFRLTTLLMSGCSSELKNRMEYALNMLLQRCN

[3] = molecular target: T1, kinases (KINOMEscan panel) (Homo sapiens, UniProt Q8IYT8); details: Published KINOMEscan; ref original PKIS2 published data; cited from earlier work
T1 sequence (Q8IYT8 1-1036): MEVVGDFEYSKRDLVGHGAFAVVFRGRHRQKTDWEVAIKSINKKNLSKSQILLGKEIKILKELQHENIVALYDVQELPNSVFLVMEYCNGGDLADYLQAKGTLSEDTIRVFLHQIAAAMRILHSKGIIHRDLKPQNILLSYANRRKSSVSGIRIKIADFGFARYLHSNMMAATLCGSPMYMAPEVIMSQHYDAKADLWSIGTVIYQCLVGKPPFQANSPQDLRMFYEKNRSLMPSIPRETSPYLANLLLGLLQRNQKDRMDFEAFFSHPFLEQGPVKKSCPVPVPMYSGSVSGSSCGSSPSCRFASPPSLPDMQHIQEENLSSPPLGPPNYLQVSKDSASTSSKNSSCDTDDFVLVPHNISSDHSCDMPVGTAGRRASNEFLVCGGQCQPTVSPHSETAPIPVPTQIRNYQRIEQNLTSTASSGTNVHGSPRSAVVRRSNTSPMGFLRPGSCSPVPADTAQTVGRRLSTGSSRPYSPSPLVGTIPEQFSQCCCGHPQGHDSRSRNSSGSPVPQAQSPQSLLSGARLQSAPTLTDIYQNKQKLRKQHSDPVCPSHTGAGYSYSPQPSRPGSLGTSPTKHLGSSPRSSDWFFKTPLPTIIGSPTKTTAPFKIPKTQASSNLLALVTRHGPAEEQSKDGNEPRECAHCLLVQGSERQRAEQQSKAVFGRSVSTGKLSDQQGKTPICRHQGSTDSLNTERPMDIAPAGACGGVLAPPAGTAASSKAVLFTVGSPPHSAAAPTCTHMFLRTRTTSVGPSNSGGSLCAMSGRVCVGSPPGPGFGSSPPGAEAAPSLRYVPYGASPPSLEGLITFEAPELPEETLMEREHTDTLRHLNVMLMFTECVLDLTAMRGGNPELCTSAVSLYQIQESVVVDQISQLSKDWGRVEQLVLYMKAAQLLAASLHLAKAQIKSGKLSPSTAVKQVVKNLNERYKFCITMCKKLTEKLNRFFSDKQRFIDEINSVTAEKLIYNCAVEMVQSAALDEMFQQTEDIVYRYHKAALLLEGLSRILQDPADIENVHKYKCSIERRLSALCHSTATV

[4] = molecular target: T2, kinases (KINOMEscan panel) (Homo sapiens, UniProt Q9BRS2); details: RIOK1; Published KINOMEscan; ref original PKIS2 published data; cited from earlier work
T2 sequence (Q9BRS2 1-568): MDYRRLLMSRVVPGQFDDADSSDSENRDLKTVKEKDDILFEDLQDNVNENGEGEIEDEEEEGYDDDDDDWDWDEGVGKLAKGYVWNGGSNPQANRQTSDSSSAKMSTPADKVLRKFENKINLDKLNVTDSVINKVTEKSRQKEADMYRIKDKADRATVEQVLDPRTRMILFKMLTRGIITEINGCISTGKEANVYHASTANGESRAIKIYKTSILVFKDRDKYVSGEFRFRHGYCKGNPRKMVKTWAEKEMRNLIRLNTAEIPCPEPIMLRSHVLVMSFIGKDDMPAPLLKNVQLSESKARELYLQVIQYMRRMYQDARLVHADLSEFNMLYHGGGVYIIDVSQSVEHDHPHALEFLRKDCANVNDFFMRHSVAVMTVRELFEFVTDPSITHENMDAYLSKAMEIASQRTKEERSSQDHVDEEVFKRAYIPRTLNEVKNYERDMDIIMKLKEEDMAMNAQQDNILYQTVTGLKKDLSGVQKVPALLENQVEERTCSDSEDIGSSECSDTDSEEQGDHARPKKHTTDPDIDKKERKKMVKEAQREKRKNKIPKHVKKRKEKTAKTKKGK

[5] = molecular target: kinases (KINOMEscan panel) (Homo sapiens, UniProt Q9H422); details: kinase HIPK3; Published KINOMEscan; ref original PKIS2 published data; cited from earlier work
Chain of kinases (KINOMEscan panel) (Homo sapiens, UniProt Q9H422) (Q9H422 whole entry): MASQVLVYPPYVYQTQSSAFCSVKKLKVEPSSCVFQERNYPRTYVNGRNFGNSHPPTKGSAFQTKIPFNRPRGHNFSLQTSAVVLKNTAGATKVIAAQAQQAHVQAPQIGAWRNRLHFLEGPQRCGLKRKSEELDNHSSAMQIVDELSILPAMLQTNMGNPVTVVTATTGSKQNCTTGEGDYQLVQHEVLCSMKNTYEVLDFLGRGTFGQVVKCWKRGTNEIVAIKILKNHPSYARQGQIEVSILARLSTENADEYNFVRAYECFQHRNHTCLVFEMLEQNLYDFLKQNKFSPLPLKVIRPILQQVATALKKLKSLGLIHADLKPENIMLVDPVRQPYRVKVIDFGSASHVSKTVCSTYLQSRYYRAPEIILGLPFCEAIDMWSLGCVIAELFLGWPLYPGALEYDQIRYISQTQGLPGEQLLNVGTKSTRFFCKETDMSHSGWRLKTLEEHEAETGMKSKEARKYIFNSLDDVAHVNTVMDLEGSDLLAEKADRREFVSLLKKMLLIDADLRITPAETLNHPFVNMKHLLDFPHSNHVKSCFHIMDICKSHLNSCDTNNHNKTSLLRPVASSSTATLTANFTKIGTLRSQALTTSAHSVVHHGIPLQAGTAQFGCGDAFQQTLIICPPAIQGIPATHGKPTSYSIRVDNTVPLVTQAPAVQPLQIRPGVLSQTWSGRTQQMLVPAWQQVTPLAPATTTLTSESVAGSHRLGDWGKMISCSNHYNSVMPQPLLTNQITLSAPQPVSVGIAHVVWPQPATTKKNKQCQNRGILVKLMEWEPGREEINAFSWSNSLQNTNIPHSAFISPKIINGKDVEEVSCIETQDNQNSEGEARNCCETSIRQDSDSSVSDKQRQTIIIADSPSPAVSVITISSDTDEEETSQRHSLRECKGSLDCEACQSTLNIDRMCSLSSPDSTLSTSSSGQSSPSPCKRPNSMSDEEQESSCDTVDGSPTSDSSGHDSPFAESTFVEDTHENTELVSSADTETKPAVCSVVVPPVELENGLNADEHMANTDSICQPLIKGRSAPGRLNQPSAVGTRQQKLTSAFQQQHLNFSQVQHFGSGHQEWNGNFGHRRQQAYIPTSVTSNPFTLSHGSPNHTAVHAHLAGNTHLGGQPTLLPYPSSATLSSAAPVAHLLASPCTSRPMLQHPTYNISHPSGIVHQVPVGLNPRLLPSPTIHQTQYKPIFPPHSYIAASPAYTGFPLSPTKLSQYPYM

[6] = molecular target: kinases (KINOMEscan panel) (Homo sapiens, UniProt O75716); details: kinase STK16; Published KINOMEscan; ref original PKIS2 published data; cited from earlier work
Chain of kinases (KINOMEscan panel) (Homo sapiens, UniProt O75716) (O75716 whole entry): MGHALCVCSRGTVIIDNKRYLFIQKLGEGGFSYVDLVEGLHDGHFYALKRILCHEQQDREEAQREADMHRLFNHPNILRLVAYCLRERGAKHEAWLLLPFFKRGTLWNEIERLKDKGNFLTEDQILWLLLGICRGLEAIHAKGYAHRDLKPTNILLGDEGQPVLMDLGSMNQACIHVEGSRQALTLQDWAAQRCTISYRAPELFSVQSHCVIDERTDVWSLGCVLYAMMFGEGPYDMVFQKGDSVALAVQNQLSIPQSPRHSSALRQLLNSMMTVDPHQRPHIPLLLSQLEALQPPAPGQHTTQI

[7] = molecular target: kinases (KINOMEscan panel) (Homo sapiens, UniProt Q9HBH9); details: MKNK2; Published KINOMEscan; ref original PKIS2 published data; cited from earlier work
Chain of kinases (KINOMEscan panel) (Homo sapiens, UniProt Q9HBH9) (Q9HBH9 whole entry): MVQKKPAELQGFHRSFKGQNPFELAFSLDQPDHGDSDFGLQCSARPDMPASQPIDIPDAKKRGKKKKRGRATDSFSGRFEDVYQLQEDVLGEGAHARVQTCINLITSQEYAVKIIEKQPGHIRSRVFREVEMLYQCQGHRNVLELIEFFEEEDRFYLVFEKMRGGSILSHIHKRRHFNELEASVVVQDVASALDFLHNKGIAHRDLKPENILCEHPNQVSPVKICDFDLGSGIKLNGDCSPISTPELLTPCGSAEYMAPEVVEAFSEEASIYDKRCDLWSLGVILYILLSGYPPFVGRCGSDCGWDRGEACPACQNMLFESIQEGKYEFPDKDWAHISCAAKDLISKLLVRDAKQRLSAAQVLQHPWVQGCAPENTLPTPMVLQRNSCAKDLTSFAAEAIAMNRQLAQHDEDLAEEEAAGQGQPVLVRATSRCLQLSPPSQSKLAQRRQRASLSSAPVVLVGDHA

[8] = molecular target: kinases (KINOMEscan panel) (Homo sapiens, UniProt Q15303); details: kinase ERBB4; Published KINOMEscan; ref original PKIS2 published data; cited from earlier work
Chain of kinases (KINOMEscan panel) (Homo sapiens, UniProt Q15303) (Q15303 26-1308): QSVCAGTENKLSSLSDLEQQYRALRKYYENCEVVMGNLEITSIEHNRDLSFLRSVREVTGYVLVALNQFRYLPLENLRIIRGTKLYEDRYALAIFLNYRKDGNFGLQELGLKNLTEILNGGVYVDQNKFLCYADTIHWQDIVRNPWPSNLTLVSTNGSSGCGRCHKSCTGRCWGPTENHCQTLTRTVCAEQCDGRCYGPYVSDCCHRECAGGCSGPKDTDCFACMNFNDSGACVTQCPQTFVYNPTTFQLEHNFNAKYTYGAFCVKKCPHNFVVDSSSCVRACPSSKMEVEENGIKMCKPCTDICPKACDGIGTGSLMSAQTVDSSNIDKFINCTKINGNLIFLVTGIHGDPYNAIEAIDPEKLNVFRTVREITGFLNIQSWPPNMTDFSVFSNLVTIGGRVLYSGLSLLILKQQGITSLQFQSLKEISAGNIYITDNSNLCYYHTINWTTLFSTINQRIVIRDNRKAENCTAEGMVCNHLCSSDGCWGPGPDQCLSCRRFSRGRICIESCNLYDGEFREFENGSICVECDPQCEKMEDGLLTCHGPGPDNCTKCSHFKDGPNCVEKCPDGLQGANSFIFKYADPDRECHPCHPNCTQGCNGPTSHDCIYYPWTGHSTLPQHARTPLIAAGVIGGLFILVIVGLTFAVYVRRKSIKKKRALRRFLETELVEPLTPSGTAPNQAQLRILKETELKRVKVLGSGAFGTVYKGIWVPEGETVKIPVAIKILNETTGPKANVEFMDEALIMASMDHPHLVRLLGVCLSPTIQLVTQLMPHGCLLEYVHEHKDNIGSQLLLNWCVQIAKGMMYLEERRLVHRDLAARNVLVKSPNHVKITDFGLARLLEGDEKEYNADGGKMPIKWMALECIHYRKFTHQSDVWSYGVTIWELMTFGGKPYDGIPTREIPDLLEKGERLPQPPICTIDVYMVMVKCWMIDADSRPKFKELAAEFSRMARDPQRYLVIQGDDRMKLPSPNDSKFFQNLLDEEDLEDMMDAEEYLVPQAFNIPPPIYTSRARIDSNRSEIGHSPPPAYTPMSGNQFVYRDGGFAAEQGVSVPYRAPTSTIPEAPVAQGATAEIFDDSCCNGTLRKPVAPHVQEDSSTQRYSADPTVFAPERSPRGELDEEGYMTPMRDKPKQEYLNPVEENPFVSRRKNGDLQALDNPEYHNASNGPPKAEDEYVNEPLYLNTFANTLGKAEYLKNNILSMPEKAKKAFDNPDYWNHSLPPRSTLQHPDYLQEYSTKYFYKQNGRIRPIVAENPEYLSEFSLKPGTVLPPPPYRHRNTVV

Cc1cccc(-c2nc(Nc3ccncc3)c3ccccc3n2)n1 [NK215]
KINOMEscan GRK4 [1]: 0
KINOMEscan PLK2 [2]: 0
KINOMEscan ULK2 [3]: 0
KINOMEscan RIOK1 [4]: 0
KINOMEscan HIPK3 [5]: 0
KINOMEscan STK16 [6]: 7
KINOMEscan MKNK2 [7]: 0
KINOMEscan ERBB4 [8]: 0
